Literature values, collected in patent US20030103955A1 (priority 2000, published 2003).

What was measured:
[1] = octanol/buffer phosphate, ph=7.4
cycloxygenase = conditions: with reduction of production of tissue prostaglandines PGF2 and PGE2
[2] = tested on: arthritis induced by adjuvant; conditions: compared with aspirin

- partition coefficient [1]: 13.0
- activity of cycloxygenase (cycloxygenase): inhibits the activity of cycloxygenase
Compound: O=C(O)Cc1ccccc1Nc1c(Cl)cccc1Cl [Diclofenac]
- anti-inflammatory effect [2]: higher than that of aspirin
